Source: PubChem BioAssay AID506 (SGCOxCompounds, 2006)

Biological target: Serine/threonine-protein kinase Nek2 (Homo sapiens) (UniProt P51955)
Assay: ligand-induced stabilization of human NEK2 kinase – biophysical, DSF, SYPRO orange, recombinant protein (AID 506)
Settings: recombinant NEK2, DSF thermal shift, at 10 µM, protein 2 µM, stronger effect = higher value

Sequence of Serine/threonine-protein kinase Nek2 (Homo sapiens) (P51955 whole entry, looked up): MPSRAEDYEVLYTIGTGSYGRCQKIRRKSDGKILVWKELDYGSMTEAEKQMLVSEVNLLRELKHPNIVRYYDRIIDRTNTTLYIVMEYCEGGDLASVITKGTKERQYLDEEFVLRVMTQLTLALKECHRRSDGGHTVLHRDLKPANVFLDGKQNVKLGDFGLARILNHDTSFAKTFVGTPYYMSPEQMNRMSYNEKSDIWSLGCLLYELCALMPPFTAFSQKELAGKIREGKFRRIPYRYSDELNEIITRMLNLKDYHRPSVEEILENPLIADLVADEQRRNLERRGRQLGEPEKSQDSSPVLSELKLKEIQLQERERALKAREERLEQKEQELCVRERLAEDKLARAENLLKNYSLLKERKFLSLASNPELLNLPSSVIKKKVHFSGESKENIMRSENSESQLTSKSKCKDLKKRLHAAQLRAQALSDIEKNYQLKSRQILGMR

Compound	Tm shift
CCN(CC)CCNC(=O)c1c(C)[nH]c(/C=C2\C(=O)Nc3ccc(Cl)cc32)c1C	5.4 °C
OCC(O)CCO/N=C1/C(c2c(O)[nH]c3ccccc23)=Nc2ccccc21 (stereo unspecified)	3.3 °C
O=C1C(C2=C3C(=Nc4ccccc43)/C(=C\c3ccc(O)cc3)C2=O)=C2C(=Nc3ccccc32)/C1=C\c1ccc(O)cc1	3.2 °C
O=Nc1c(-c2c(O)[nH]c3ccc(S(O)(O)O)cc23)[nH]c2ccccc12	3.2 °C
O=C1NCc2c1c1c3ccccc3[nH]c1c1[nH]c3ccccc3c21	3.7 °C
O=c1c(O)c(-c2ccc(O)c(O)c2)oc2cc(O)cc(O)c12	3.4 °C
NS(=O)(=O)c1ccc(Nc2nc(OCC3CCCCC3)c3[nH]cnc3n2)cc1	5.6 °C

Second part, the molecule after the results:

Tm shift	Compound
3.3 °C	Clc1cccc(Nc2ccn3ncc(-c4ccc5c(c4)OCO5)c3n2)c1
3.1 °C	Nc1nc(Nc2ccc(S(N)(=O)=O)cc2)nn1C(=S)Nc1c(F)cccc1F
3.1 °C	NC(=O)Nc1sc(-c2ccccc2)cc1C(N)=O
6 °C	Cn1cc(/C=C2\C(=O)Nc3ccc(S(N)(=O)=O)cc32)c2ccccc21
3.3 °C	Nc1cc2ncnc(Nc3cccc(Br)c3)c2cc1N
3.7 °C	Cc1cc(Nc2nc(-c3ccccc3)nc3ccccc23)n[nH]1
3.3 °C	Nc1cccc(-c2cc3c(Oc4cccc(O)c4)ncnc3[nH]2)c1
4.6 °C	C=CCNC(=O)c1cccc2c1-c1ccccc1C2=O
3.2 °C	COc1cccc(-c2cnn3ccc(Nc4cccc(Cl)c4)nc23)c1
